# From US9382228B2 (priority 2013, dated 2016)
# Legend:
# M-NFS-60 cells = experiment: cells; details: 67 h, read-out: M-NFS-60 cell proliferation
# Experimental: M-NFS-6 Cell Proliferation Assay
# A serial dilution of test compound was dispensed into a 384-well black clear bottom plate (Corning, Corning, N.Y.). Two thousand five hundred cells were added per well in 50 μL complete growth medium. […] IC50 values were calculated from a series of percent inhibition values determined at a range of inhibitor concentrations using software routines as implemented in the GraphPad Prism software package.
# [1] = target: T1, unphosphorylated c-FMS kinase (uFMS, Seq. ID no. 1) (Homo sapiens, UniProt P07333); experiment: biochemical; details: uFMS, enzymatic assay, ATP 500 μM
# T1 sequence (P07333 538-972): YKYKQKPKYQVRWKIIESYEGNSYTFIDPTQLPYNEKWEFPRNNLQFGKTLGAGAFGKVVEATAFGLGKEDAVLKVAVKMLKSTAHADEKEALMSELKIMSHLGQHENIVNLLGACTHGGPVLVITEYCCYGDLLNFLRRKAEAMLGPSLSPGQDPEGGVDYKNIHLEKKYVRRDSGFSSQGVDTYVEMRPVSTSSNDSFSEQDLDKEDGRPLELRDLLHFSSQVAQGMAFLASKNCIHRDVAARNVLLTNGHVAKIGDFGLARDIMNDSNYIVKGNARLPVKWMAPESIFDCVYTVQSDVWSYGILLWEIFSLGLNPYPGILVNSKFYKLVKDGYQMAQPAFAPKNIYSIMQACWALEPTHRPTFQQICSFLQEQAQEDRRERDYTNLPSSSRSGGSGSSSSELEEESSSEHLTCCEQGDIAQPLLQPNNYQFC
# osteoclast precursors = experiment: cells; type: cell-based; details: read-out: Osteoclast assay
# Experimental: Osteoclast Tartrate-Resistant Acid Phosphatase Assay
# Diluted compound was transferred to a 384-well black clear bottom plate. Two-thousand five hundred osteoclast precursors (Lonza, Walkersville, Md.) were added per well in growth media containing Receptor Activator of Nuclear Factor Kappa-beta ligand (RANKL) and M-CSF (R&D Systems, Minneapolis, Minn.). […] Tartrate-resistant acid phosphatase activity in the supernatant samples was determined using an acid phosphatase assay kit (Sigma, St. Louis, Mo.). Absorbance was measured at 550 nm using a plate reader. Data was analyzed using Prism software (Graphpad, San Diego, Calif.) to calculate IC50 values.
# [2] = target: unphosphorylated c-KIT kinase (uKIT, Seq. ID no. 2) (Homo sapiens, UniProt P10721); experiment: biochemical; details: uKIT, enzymatic assay, ATP 2000 μM
# Experimental: uKit kinase (Seq. ID No. 2) Assay
# In this assay, the oxidation of NADH (thus the decrease at A340 nm) was continuously monitored spectrophometrically. […] The inhibition reaction was started by mixing serial diluted test compound with the above reaction mixture. The absorption at 340 nm was monitored continuously for 4 hours at 30° C. on Synergy 2 plate reader (BioTech).
# [3] = target: unphosphorylated PDGFRβ kinase (uPDGFRβ, Seq. ID No. 3) (Homo sapiens, UniProt P09619); experiment: biochemical; details: uPDGFRb, enzymatic assay, ATP 500 μM
# unphosphorylated PDGFRβ kinase (uPDGFRβ, Seq. ID No. 3), sequence (P09619 557-1106): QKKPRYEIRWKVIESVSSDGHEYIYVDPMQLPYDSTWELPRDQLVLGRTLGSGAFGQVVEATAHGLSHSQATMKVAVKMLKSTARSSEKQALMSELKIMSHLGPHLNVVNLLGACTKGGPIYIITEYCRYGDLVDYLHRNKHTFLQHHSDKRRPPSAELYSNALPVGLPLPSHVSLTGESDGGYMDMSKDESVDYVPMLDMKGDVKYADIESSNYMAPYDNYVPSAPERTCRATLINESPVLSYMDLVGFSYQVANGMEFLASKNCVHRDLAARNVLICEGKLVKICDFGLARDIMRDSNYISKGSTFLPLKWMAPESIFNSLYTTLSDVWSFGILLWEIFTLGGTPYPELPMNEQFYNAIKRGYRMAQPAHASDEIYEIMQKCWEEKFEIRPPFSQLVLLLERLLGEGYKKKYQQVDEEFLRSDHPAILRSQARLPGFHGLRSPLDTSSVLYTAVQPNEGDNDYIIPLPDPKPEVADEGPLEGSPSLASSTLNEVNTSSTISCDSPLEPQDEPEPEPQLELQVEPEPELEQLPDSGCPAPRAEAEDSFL
# Experimental: Unphosphorylated PDGFRβ (uPDGFRβ) Kinase (Seq. ID No. 3) Assay
# In this assay, the oxidation of NADH (thus the decrease at A340 nm) was continuously monitored spectrophometrically. […] The inhibition reaction was started by mixing serial diluted test compound with the above reaction mixture. The absorption at 340 nm was monitored continuously for 4 h at 30° C. on a Polarstar Optima or Synergy 2 plate reader. The reaction rate was calculated using the 1.5 to 2.5 h time frame. Percent inhibition was obtained by comparison of reaction rate with that of a control (i.e. with no test compound). IC50 values were calculated from a series of percent inhibition values determined at a range of inhibitor concentrations using software routines as implemented in the GraphPad Prism software package.
# unphosphorylated c-KIT kinase (uKIT, Seq. ID no. 2), sequence (P10721 with tags, fused parts or gaps): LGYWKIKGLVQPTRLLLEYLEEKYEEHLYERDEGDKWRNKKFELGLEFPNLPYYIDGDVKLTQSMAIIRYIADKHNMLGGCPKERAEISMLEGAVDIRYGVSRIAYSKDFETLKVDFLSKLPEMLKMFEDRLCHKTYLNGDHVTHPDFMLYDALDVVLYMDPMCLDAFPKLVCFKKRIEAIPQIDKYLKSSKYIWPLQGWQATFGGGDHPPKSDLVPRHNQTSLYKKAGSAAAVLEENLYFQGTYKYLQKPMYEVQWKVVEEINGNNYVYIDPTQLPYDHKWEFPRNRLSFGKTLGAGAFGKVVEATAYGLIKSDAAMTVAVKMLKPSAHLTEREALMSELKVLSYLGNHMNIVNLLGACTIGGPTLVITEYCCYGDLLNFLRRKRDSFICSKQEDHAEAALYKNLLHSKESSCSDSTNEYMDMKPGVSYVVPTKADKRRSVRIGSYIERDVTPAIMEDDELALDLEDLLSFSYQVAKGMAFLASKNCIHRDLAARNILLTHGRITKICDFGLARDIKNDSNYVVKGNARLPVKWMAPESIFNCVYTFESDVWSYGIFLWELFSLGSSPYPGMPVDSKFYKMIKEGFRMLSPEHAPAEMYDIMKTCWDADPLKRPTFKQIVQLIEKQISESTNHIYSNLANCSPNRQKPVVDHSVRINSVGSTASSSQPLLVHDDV
Compound,IC50 [1] [nM],IC50 (osteoclast precursors) [nM],IC50 [2] [nM],IC50 [3] [nM],IC50 (M-NFS-60 cells) [nM]
"COC(C)(C)C(=O)NC(=O)Nc1ccc(Oc2ccnc(-c3ccc(C4CCN(C)CC4)cc3)c2)c(C)n1 [Example 133, 2-methoxy-2-methyl-N-((6-methyl-5-((2-(4-(1-methylpiperidin-4-yl)phenyl)pyridin-4-yl)oxy)pyridin-2-yl)carbamoyl)propanamide]",< 10,10 to 100,10 to 100,,< 10
"Cn1cc(-c2cc(Oc3ccc(NC(=O)NC(=O)C4CC(C)(C)C4)nc3)ncn2)cn1 [Example 5, 3,3-dimethyl-N-((5-((6-(1-methyl-1H-pyrazol-4-yl)pyrimidin-4-yl)oxy)pyridin-2-yl)carbamoyl)cyclobutanecarboxamide]",< 10,< 10,,10 to 100,< 10
"Cn1cc(-c2cc(Oc3ccc(NC(=O)NC(=O)C4CC5CCC4O5)nc3)ccn2)cn1 (stereo not shown) [Example 111, N-((5-((2-(1-methyl-1H-pyrazol-4-yl)pyridin-4-yl)oxy)pyridin-2-yl)carbamoyl)-7-oxabicyclo[2.2.1]heptane-2-carboxamide]",,< 10,100 to 1000,,
"COC1(C(=O)NC(=O)Nc2ccc(Oc3ccnc(-c4ccc(C5CCN(C)CC5)cc4)c3)c(C)n2)CC1 [Example 144, 1-methoxy-N-((6-methyl-5-((2-(4-(1-methylpiperidin-4-yl)phenyl)pyridin-4-yl)oxy)pyridin-2-yl)carbamoyl)cyclopropanecarboxamide]",,< 10,100 to 1000,,
"Cc1cn(-c2cc(Oc3ccc(NC(=O)NC(=O)C4CCOCC4)nc3C)ccn2)cn1 [Example 142, N-((6-methyl-5-((2-(4-methyl-1H-imidazol-1-yl)pyridin-4-yl)oxy)pyridin-2-yl)carbamoyl)tetrahydro-2H-pyran-4-carboxamide]",10 to 100,10 to 100,100 to 1000,,100 to 1000
"COC1(C(=O)NC(=O)Nc2ccc(Oc3ccnc(-c4cnn(C)c4)c3)c(C)n2)CCCC1 [Example 150, 1-methoxy-N-((6-methyl-5-((2-(1-methyl-1H-pyrazol-4-yl)pyridin-4-yl)oxy)pyridin-2-yl)carbamoyl)cyclopentanecarboxamide]",,10 to 100,10 to 100,100 to 1000,
"CCC(=O)NC(=O)Nc1ccc(Oc2ccnc(-n3cnc(C)c3)c2)cn1 [Example 128, N-((5-((2-(4-methyl-1H-imidazol-1-yl)pyridin-4-yl)oxy)pyridin-2-yl)carbamoyl)propionamide]",100 to 1000,100 to 1000,> 1000,,> 1000
"Cc1ncc(-c2cc(Oc3ccc(NC(=O)NC(=O)C4CCOC4)nc3)ccn2)s1 (stereo not shown) [Example 115, N-((5-((2-(2-methylthiazol-5-yl)pyridin-4-yl)oxy)pyridin-2-yl)carbamoyl)tetrahydrofuran-3-carboxamide]",10 to 100,10 to 100,> 1000,,100 to 1000
"Cc1nc(NC(=O)NC(=O)CN2CCN(C)CC2)ccc1Oc1ccnc(-c2cnn(C)c2)c1 [Example 50, N-((6-methyl-5-((2-(1-methyl-1H-pyrazol-4-yl)pyridin-4-yl)oxy)pyridin-2-yl)carbamoyl)-2-(4-methylpiperazin-1-yl)acetamide]",100 to 1000,,> 1000,,> 1000
"Cc1ncc(-c2cc(Oc3ccc(NC(=O)NC(=O)C4(C)CC4)nc3)ccn2)s1 [Example 121, 1-methyl-N-((5-((2-(2-methylthiazol-5-yl)pyridin-4-yl)oxy)pyridin-2-yl)carbamoyl)cyclopropanecarboxamide]",,< 10,,,
"Cc1ccc(-c2cc(Oc3ccc(NC(=O)NC(=O)C4(C)CC4)nc3)ccn2)cn1 [Example 114, 1-methyl-N-((5-((6′-methyl-[2,3′-bipyridin]-4-yl)oxy)pyridin-2-yl)carbamoyl)cyclopropanecarboxamide]",,< 10,,,
"Cn1cc(-c2cc(Oc3ccc(NC(=O)NC(=O)C(C)(C)C#N)nc3)ccn2)cn1 [Example 30, 2-cyano-2-methyl-N-((5-((2-(1-methyl-1H-pyrazol-4-yl)pyridin-4-yl)oxy)pyridin-2-yl)carbamoyl)propanamide]",100 to 1000,,> 1000,> 1000,> 1000
"COC1(C(=O)NC(=O)Nc2ccc(Oc3ccnc(-c4cnn(C)c4)c3)cn2)CCCC1 [Example 153, 1-methoxy-N-((5-((2-(1-methyl-1H-pyrazol-4-yl)pyridin-4-yl)oxy)pyridin-2-yl)carbamoyl)cyclopentanecarboxamide]",,< 10,,,
"Cc1nc(NC(=O)NC(=O)C2(C#N)CC2)ccc1Oc1ccnc(-c2cnn(C)c2)c1 [Example 28, 1-cyano-N-((6-methyl-5-((2-(1-methyl-1H-pyrazol-4-yl)pyridin-4-yl)oxy)pyridin-2-yl)carbamoyl)cyclopropanecarboxamide]",100 to 1000,,> 1000,> 1000,> 1000
"CC(C)C(=O)NC(=O)Nc1ccc(Oc2ccnc(-c3cnn(C)c3)c2)cn1 [Example 24, N-((5-((2-(1-methyl-1H-pyrazol-4-yl)pyridin-4-yl)oxy)pyridin-2-yl)carbamoyl)isobutyramide]",,< 10,,,
"COC1(C(=O)NC(=O)Nc2ccc(Oc3ccnc(-c4cnc(C)s4)c3)c(C)n2)CC1 [Example 122, 1-methoxy-N-((6-methyl-5-((2-(2-methylthiazol-5-yl)pyridin-4-yl)oxy)pyridin-2-yl)carbamoyl)cyclopropanecarboxamide]",10 to 100,10 to 100,> 1000,,100 to 1000

# Now from value to compound, other results behind:
IC50 [1] [nM],IC50 (osteoclast precursors) [nM],IC50 [2] [nM],IC50 [3] [nM],Compound,IC50 (M-NFS-60 cells) [nM]
10 to 100,10 to 100,> 1000,,"Cc1ncc(-c2cc(Oc3ccc(NC(=O)NC(=O)C4CCOCC4)nc3C)ccn2)s1 [Example 129, N-((6-methyl-5-((2-(2-methylthiazol-5-yl)pyridin-4-yl)oxy)pyridin-2-yl)carbamoyl)tetrahydro-2H-pyran-4-carboxamide]",100 to 1000
10 to 100,,> 1000,> 1000,"Cc1nc(NC(=O)NC(=O)C(C)(C)C#N)ccc1Oc1ccnc(-c2cnn(C)c2)c1 [Example 29, 2-cyano-2-methyl-N-((6-methyl-5-((2-(1-methyl-1H-pyrazol-4-yl)pyridin-4-yl)oxy)pyridin-2-yl)carbamoyl)propanamide]",100 to 1000
> 1000,,> 1000,> 1000,"Cn1cc(-c2cc(Oc3ccc(NC(=O)NC(=O)C4(C#N)CC4)nc3)ccn2)cn1 [Example 27, 1-cyano-N-((5-((2-(1-methyl-1H-pyrazol-4-yl)pyridin-4-yl)oxy)pyridin-2-yl)carbamoyl)cyclopropanecarboxamide]",> 1000
10 to 100,10 to 100,100 to 1000,,"COC1(C(=O)NC(=O)Nc2ccc(Oc3ccnc(-n4cnc(C)c4)c3)cn2)CC1 [Example 143, 1-methoxy-N-((5-((2-(4-methyl-1H-imidazol-1-yl)pyridin-4-yl)oxy)pyridin-2-yl)carbamoyl)cyclopropanecarboxamide]",100 to 1000
,100 to 1000,,,"CCC(=O)NC(=O)Nc1ccc(Oc2ccnc(-c3cnc(C)s3)c2)cn1 [Example 98, N-((5-((2-(2-methylthiazol-5-yl)pyridin-4-yl)oxy)pyridin-2-yl)carbamoyl)propionamide]",
,10 to 100,,,"Cc1cn(-c2cc(Oc3ccc(NC(=O)NC(=O)C4(C)CCC4)nc3C)ccn2)cn1 [Example 147, 1-methyl-N-((6-methyl-5-((2-(4-methyl-1H-imidazol-1-yl)pyridin-4-yl)oxy)pyridin-2-yl)carbamoyl)cyclobutanecarboxamide]",
10 to 100,,,> 1000,"COCCCC(=O)NC(=O)Nc1ccc(Oc2ccnc(-c3cnn(C)c3)c2)c(C)n1 [Example 25, 4-methoxy-N-((6-methyl-5-((2-(1-methyl-1H-pyrazol-4-yl)pyridin-4-yl)oxy)pyridin-2-yl)carbamoyl)butanamide]",100 to 1000
,100 to 1000,,,"CC(C)C(=O)NC(=O)Nc1ccc(Oc2ccnc(-c3cnn(C)c3)c2)c(C(F)(F)F)n1 [Example 82, N-((5-((2-(1-methyl-1H-pyrazol-4-yl)pyridin-4-yl)oxy)-6-(trifluoromethyl)pyridin-2-yl)carbamoyl)isobutyramide]",
,10 to 100,,100 to 1000,"Cc1cc(-c2cc(Oc3ccc(NC(=O)NC(=O)C4CC(C)(C)C4)nc3C)ccn2)on1 [Example 14, 3,3-dimethyl-N-((6-methyl-5-((2-(3-methylisoxazol-5-yl)pyridin-4-yl)oxy)pyridin-2-yl)carbamoyl)cyclobutanecarboxamide]",
